Experimental data published in article PMC12073402, “A Selective MAP3K1 Inhibitor Facilitates Discovery of NPM1 as a Member of the Network” (Molecules, 2025).

Tests used:
Assay in all cases: KiNativ kinome profiling in PANC-1 lysate
Format in all cases: binding
MLK3 = biological target: T1, MLK3 (Homo sapiens, UniProt Q16584); settings: Lys2
T1 construct: endogenous in cells; host or cells: PANC-1
From the text: (§1) To assess target engagement and selectivity, we opted to conduct a kinome screen (KiNativ) in PANC-1 cell lysates. This chemical proteomics (chemoproteomics) methodology allows for the evaluation of small-molecule binding to protein kinases in native systems such as cell lysates. KiNativ utilizes a soluble chemical probe comprising ATP linked to biotin through an acyl-phosphate bond. The probe covalently modifies conserved lysine residues found in the ATP binding site of essentially all protein kinases (Figure 2A). To profile a kinase inhibitor, cell lysates are treated with a vehicle control or inhibitor prior to addition of the desthiobiotin ATP probe. The ATP probe occupies the ATP binding site in the kinase, which enables the conserved lysines to be biotinylated. […] The cell lysates are digested with a protease (trypsin), biotinylated peptides are affinity-enriched on streptavidin beads, and the labeled peptides are analyzed by liquid chromatography–tandem MS (Figure 2B). If an inhibitor binds to a kinase, it competes with the ATP, thus resulting in a loss of that kinase-associated peptide signal, allowing for the quantitative measurement of inhibitor binding. Unlike recombinant enzyme assays, KiNativ IC50 values are a direct measure of active site binding instead of enzymatic activity.
(§2) Kinome profiling quantified the activity of 51-106 against >300 kinases in the PANC-1 cells. The results summarized in Figure 2C are the average of duplicate control and duplicate treated samples with 5 μM of 51-106 or DMSO.
(§3) KiNativ assay with 51-106.
(§4) ATP Loop: ATP binding loop
(§5) Activation Loop: Activation loop
(§6) ATP: ATP site in non-canonical kinase (e.g. lipid kinase)
(§7) Protein Kinase Domain: Other lysine within kinase domain, possibly not in ATP binding site
(§8) Other: Labeling of residue outside of the protein kinase domain, possibly not in ATP binding site
(§9) No change. NB = No Binding (≤ 0)
(§10) >100% increase in MS signal (>2 fold increase)
(§11) Data points inhibited […] & not considered significant are left uncolored
(§12) Note: This KiNativ dataset is the result of an analysis of duplicate treated samples and control samples.
(§13) The % changes in MS signals being reported are statistically significant (Student T -test score < 0.04)

MST4, YSK1 = settings: 5 µM; Lys2; DIKAANVLLSEQGDVK
From the text: as §1, §2, §3, §4, §5, §6, §7, §8, §9, §10, §11, §12, §13

GSK3A = biological target: T2, GSK3A (Homo sapiens, UniProt P49840); settings: Lys2
T2 construct: we opted to conduct a kinome screen (KiNativ) in PANC-1 cell lysates; endogenous in cells; host or cells: PANC-1 cell lysate
From the text: as §1, §2, §3, §4, §5, §6, §7, §8, §9, §10, §11, §12, §13

AurA = biological target: T3, AurA (Homo sapiens, UniProt O14965)
T3 construct: endogenous in cells; host or cells: PANC-1 cell lysate
From the text: as §1, §2, §3, §4, §5, §6, §7, §8, §9, §10, §11, §12, §13

FAK = biological target: T4, FAK (Homo sapiens, UniProt Q05397)
T4 construct: endogenous in cells; host or cells: PANC-1 lysate
From the text: as §1, §2, §3, §4, §5, §6, §7, §8, §9, §10, §11, §12, §13

Erk3 = biological target: T5, Erk3 (Homo sapiens, UniProt Q16659); settings: Lys2
T5 construct: endogenous in cells; host or cells: PANC-1 lysate
From the text: as §1, §2, §3, §4, §5, §6, §7, §8, §9, §10, §11, §12, §13

SGK3 = biological target: T6, SGK3 (Homo sapiens, UniProt Q96BR1); settings: Lys1
T6 construct: endogenous in cells; host or cells: PANC-1 cell lysate
From the text: as §1, §2, §3, §4, §5, §6, §7, §8, §9, §10, §11, §12, §13

JAK1 domain2 = biological target: T7, JAK1 domain2 (Homo sapiens, UniProt P23458)
T7 construct: we opted to conduct a kinome screen (KiNativ) in PANC-1 cell lysates; endogenous in cells; host or cells: PANC-1 cell lysate
From the text: as §1, §2, §3, §4, §5, §6, §7, §8, §9, §10, §11, §12, §13

AGK = biological target: T8, AGK (Homo sapiens, UniProt Q53H12); settings: ATP
T8 construct: endogenous in cells; host or cells: PANC-1 cell lysate
From the text: as §1, §2, §3, §4, §5, §6, §7, §8, §9, §10, §11, §12, §13

PKD1 = biological target: T9, PKD1 (Homo sapiens, UniProt Q15139); settings: Lys1
T9 construct: endogenous in cells; host or cells: PANC-1 cell lysate
From the text: as §1, §2, §3, §4, §5, §6, §7, §8, §9, §10, §11, §12, §13

MAP4K5 = biological target: T10, MAP4K5 (Homo sapiens, UniProt Q9Y4K4)
T10 construct: endogenous in cells; host or cells: PANC-1 cell lysate
From the text: as §1, §2, §3, §4, §5, §6, §7, §8, §9, §10, §11, §12, §13

YES = biological target: T11, YES (Homo sapiens, UniProt P07947); settings: Lys1
T11 construct: endogenous in cells; host or cells: PANC-1 cell lysate
From the text: as §1, §2, §3, §4, §5, §6, §7, §8, §9, §10, §11, §12, §13

ATR = biological target: T12, ATR (Homo sapiens, UniProt Q13535); settings: ATP
T12 construct: endogenous in cells; host or cells: PANC-1 cell lysate
From the text: as §1, §2, §3, §4, §5, §6, §7, §8, §9, §10, §11, §12, §13

CASK = biological target: T13, CASK (Homo sapiens, UniProt O14936); settings: Lys1
T13 construct: endogenous in cells; host or cells: PANC-1 cell lysate
From the text: as §1, §2, §3, §4, §5, §6, §7, §8, §9, §10, §11, §12, §13

MAP2K5 = biological target: T14, MAP2K5 (Homo sapiens, UniProt Q13163); settings: Lys2
T14 construct: endogenous in cells; host or cells: PANC-1 cell lysate
From the text: as §1, §2, §3, §4, §5, §6, §7, §8, §9, §10, §11, §12, §13

FYN, SRC, YES = settings: 5 µM; ATP Loop; QGAKFPIKWTAPEAALYGR
From the text: as §1, §2, §3, §4, §5, §6, §7, §8, §9, §10, §11, §12, §13

DGKA = biological target: T15, DGKA (Homo sapiens, UniProt P23743); settings: ATP
T15 construct: endogenous in cells; host or cells: PANC-1 lysate
From the text: as §1, §2, §3, §4, §5, §6, §7, §8, §9, §10, §11, §12, §13

AAK1 = biological target: T16, AAK1 (Homo sapiens, UniProt Q2M2I8); settings: Lys2
T16 construct: endogenous in cells; host or cells: PANC-1 cell lysate
From the text: as §1, §2, §3, §4, §5, §6, §7, §8, §9, §10, §11, §12, §13

TGFbR2 = biological target: T17, TGFbR2 (Homo sapiens, UniProt P37173); settings: Lys2
T17 construct: endogenous in cells; host or cells: PANC-1 cell lysate
From the text: as §1, §2, §3, §4, §5, §6, §7, §8, §9, §10, §11, §12, §13

PIK3CD = biological target: T18, PIK3CD (Homo sapiens, UniProt O00329); settings: ATP
T18 construct: endogenous in cells; host or cells: PANC-1 cell lysate
From the text: as §1, §2, §3, §4, §5, §6, §7, §8, §9, §10, §11, §12, §13

LATS1 = biological target: T19, LATS1 (Homo sapiens, UniProt O95835)
T19 construct: we opted to conduct a kinome screen (KiNativ) in PANC-1 cell lysates; endogenous in cells; host or cells: PANC-1 cell lysate
From the text: as §1, §2, §3, §4, §5, §6, §7, §8, §9, §10, §11, §12, §13

MAP2K1, MAP2K2 = settings: 5 µM
From the text: as §1, §2, §3, §4, §5, §6, §7, §8, §9, §10, §11, §12, §13

NuaK2 = biological target: T20, NuaK2 (Homo sapiens, UniProt Q9H093); settings: Lys1
T20 construct: endogenous in cells; host or cells: PANC-1 cell lysate
From the text: as §1, §2, §3, §4, §5, §6, §7, §8, §9, §10, §11, §12, §13

ZC1/HGK = biological target: T21, ZC1/HGK (Homo sapiens, UniProt O95819); settings: Lys1
T21 construct: endogenous in cells; host or cells: PANC-1 cell lysate
From the text: as §1, §2, §3, §4, §5, §6, §7, §8, §9, §10, §11, §12, §13

RSK1 domain1 = biological target: T22, RSK1 domain1 (Homo sapiens, UniProt Q15418); settings: ATP Loop
T22 construct: endogenous in cells; host or cells: PANC-1 cell lysate
From the text: as §1, §2, §3, §4, §5, §6, §7, §8, §9, §10, §11, §12, §13

AXL = biological target: T23, AXL (Homo sapiens, UniProt P30530); settings: Activation Loop
T23 construct: endogenous in cells; host or cells: PANC-1 cell lysate
From the text: as §1, §2, §3, §4, §5, §6, §7, §8, §9, §10, §11, §12, §13

IRAK1 = biological target: T24, IRAK1 (Homo sapiens, UniProt P51617); settings: Lys2
T24 construct: we opted to conduct a kinome screen (KiNativ) in PANC-1 cell lysates; endogenous in cells; host or cells: PANC-1 cell lysate
From the text: as §1, §2, §3, §4, §5, §6, §7, §8, §9, §10, §11, §12, §13

T10 sequence (Q9Y4K4 whole entry): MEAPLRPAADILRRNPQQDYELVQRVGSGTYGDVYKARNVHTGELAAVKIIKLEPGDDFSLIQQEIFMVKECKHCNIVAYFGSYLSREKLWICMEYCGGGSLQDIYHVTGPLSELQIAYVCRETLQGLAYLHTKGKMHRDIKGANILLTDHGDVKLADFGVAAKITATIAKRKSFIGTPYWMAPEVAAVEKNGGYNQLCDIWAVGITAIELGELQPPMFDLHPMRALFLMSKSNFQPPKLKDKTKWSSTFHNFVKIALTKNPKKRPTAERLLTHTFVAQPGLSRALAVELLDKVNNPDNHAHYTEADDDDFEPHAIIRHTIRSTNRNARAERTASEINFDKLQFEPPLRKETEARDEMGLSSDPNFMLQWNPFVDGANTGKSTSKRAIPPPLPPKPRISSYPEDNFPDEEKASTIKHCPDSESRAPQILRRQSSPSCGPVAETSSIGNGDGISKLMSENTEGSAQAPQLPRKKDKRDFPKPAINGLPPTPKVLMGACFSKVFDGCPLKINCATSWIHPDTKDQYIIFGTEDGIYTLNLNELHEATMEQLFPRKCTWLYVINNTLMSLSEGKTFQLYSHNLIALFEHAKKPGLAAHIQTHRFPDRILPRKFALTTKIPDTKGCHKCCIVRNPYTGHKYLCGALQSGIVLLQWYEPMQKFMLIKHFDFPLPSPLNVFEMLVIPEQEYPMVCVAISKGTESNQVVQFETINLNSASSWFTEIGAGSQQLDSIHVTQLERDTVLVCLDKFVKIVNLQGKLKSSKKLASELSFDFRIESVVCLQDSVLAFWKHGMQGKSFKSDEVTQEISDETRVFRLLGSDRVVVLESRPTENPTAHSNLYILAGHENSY
T3 sequence (O14965 whole entry): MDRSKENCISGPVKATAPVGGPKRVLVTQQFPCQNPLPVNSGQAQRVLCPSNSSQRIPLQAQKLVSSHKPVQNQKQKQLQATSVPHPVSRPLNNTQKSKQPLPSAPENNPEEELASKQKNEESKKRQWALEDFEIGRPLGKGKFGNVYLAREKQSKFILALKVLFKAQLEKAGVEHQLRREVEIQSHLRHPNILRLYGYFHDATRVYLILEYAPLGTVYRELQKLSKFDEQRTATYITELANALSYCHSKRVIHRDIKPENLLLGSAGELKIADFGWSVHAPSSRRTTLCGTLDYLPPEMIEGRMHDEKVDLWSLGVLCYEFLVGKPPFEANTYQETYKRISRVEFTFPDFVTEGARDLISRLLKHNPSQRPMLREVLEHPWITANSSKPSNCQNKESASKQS
T19 sequence (O95835 whole entry): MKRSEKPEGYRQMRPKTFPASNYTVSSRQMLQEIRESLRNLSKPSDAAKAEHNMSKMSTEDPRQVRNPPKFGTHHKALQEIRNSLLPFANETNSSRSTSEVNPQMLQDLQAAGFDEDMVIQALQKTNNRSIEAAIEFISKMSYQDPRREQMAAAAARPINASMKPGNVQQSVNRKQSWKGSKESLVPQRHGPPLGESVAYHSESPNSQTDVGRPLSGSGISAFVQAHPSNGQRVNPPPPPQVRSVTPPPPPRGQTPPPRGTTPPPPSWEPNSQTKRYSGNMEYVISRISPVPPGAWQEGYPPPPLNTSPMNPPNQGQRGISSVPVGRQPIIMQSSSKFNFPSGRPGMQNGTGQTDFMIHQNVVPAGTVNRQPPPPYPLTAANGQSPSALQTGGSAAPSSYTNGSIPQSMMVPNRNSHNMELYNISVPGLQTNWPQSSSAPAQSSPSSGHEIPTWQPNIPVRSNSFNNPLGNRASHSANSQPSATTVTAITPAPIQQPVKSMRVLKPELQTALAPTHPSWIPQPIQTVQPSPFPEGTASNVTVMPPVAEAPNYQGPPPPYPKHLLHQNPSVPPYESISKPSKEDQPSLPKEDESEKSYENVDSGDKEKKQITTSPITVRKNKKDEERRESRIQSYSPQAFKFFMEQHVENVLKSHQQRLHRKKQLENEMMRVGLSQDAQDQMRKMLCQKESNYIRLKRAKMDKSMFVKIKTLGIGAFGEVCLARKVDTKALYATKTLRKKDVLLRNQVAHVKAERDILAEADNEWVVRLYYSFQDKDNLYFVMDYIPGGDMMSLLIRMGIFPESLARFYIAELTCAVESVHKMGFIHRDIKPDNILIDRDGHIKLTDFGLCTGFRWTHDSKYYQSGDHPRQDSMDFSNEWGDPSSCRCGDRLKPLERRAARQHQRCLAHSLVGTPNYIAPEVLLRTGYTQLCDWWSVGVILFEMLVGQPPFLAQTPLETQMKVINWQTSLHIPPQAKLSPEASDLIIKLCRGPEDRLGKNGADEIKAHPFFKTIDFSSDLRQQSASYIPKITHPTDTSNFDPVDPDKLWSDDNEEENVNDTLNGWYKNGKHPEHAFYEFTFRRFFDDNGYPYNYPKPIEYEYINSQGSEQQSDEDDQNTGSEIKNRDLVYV
T4 sequence (Q05397 whole entry): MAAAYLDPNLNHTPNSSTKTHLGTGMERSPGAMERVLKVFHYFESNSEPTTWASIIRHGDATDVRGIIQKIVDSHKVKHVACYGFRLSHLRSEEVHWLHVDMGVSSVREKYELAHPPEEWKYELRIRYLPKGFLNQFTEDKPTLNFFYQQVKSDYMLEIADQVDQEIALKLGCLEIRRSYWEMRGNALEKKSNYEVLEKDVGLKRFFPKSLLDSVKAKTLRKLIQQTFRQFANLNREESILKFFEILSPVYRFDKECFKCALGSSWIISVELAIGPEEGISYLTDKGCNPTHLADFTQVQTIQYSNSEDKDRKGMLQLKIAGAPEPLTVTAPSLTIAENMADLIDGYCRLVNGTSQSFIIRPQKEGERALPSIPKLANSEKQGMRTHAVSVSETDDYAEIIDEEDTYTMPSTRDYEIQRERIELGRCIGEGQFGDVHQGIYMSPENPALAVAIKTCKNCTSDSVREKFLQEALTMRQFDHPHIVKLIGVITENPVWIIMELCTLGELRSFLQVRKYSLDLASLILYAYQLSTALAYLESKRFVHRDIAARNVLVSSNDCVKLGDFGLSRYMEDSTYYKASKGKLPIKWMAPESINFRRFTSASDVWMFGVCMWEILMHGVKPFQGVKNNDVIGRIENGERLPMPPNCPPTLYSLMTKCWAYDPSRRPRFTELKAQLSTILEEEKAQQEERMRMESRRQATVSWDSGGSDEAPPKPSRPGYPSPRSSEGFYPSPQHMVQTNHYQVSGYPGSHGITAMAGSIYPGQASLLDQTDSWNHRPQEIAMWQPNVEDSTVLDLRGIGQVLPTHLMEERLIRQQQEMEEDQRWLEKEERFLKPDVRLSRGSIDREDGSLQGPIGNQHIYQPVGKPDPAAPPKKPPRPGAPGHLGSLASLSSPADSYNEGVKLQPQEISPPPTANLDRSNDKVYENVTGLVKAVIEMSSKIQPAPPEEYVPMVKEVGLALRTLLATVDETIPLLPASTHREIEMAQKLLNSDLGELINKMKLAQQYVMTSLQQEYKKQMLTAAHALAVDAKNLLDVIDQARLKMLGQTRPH
T7 sequence (P23458 whole entry, the tested form may be a part): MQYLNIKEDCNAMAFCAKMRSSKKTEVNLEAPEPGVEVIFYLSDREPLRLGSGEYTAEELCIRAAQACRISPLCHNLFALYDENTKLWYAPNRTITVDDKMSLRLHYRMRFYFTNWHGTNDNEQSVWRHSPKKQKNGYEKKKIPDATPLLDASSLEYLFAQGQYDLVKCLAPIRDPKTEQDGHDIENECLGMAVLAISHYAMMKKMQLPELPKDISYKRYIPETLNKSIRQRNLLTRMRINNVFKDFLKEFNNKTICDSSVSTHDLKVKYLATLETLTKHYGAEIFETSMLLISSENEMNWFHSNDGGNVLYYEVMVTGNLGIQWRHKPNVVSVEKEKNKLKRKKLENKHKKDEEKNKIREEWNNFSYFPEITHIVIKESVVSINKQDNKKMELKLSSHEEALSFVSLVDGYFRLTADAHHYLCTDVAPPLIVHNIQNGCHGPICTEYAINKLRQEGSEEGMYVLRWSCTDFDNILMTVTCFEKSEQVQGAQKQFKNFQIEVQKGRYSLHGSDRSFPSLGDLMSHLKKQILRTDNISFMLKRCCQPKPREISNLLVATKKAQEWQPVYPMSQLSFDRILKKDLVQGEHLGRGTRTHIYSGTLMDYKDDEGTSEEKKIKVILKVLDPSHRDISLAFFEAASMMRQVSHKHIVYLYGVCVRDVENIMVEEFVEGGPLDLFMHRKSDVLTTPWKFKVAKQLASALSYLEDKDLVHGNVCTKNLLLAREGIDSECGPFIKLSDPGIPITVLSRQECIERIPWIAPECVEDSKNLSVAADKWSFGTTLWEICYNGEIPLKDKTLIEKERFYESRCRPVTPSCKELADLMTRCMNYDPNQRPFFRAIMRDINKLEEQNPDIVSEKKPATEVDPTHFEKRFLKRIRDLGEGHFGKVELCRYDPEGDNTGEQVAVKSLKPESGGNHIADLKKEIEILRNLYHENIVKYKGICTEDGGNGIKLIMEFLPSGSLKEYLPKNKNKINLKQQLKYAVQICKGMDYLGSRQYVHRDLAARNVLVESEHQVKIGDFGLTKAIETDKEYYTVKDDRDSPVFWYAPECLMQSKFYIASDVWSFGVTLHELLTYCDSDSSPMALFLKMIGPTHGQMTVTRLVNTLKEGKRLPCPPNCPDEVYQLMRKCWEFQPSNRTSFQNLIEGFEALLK
T6 sequence (Q96BR1 whole entry): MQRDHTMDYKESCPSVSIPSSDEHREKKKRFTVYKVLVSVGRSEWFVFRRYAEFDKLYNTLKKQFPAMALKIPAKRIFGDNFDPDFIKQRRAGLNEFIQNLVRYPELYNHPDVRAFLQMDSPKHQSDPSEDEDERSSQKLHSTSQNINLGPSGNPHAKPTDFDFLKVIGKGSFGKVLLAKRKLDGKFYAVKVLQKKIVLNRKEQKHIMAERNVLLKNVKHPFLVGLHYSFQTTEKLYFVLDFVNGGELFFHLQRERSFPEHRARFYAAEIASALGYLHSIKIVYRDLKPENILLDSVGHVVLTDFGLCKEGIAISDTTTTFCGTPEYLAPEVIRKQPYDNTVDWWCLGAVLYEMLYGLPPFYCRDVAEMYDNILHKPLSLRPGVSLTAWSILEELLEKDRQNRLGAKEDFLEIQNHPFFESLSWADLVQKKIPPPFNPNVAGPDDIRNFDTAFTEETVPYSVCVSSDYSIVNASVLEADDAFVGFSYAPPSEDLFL

SMILES: Cn1cc(-c2cnc3ccc(NC(=O)Nc4ccc(F)c(C(F)(F)F)c4)cc3n2)cn1 [51-106, 1-(4-Fluoro-3-(trifluoromethyl)phenyl)-3-(3-(1-methyl-1H-pyrazol-4-yl)quinoxalin-6-yl)urea]
- inhibition at 5 µM (MLK3): 1.3%
- % Inhibition (MST4, YSK1): 12.8%
- inhibition at 5 µM (GSK3A): ≤ 0%
- % Inhibition (AurA; 5 µM, Lys2, DIKPENLLLGSAGELK): NB (NB = No Binding (≤ 0))
- inhibition at 5 µM (AurA; Lys1, […]): ≤ 0%
- inhibition at 5 µM (FAK; ATP Loop, YMEDSTYYKASK): 22.5%
- inhibition at 5 µM (FAK; Lys1, CIGEGQFGDVHQGIYMSPENPALAVAIKTCK): 2.8%
- inhibition at 5 µM (Erk3): ≤ 0%
- inhibition at 5 µM (SGK3): ≤ 0%
- % Inhibition (JAK1 domain2; 5 µM, ATP Loop, IGDFGLTKAIETDKEYYTVK): NB (NB = No Binding (≤ 0))
- inhibition at 5 µM (JAK1 domain2; Lys1, […]): ≤ 0%
- inhibition at 5 µM (AGK): ≤ 0%
- inhibition at 5 µM (PKD1): ≤ 0%
- inhibition at 5 µM (MAP4K5; Lys1, NVHTGELAAVKIIK): 6%
- inhibition at 5 µM (MAP4K5; Lys2, DIKGANILLTDHGDVK): ≤ 0%
- inhibition at 5 µM (YES): 16%
- inhibition at 5 µM (ATR): 2.2%
- inhibition at 5 µM (CASK): ≤ 0%
- inhibition at 5 µM (MAP2K5): 3%
- % Inhibition (FYN, SRC, YES): 14.0%
- inhibition at 5 µM (DGKA): ≤ 0%
- inhibition at 5 µM (AAK1): 3.5%
- inhibition at 5 µM (TGFbR2): 8.9%
- inhibition at 5 µM (PIK3CD): 1.8%
- % Inhibition (LATS1; 5 µM, Lys2, DIKPDNILIDR): NB (NB = No Binding (≤ 0))
- inhibition at 5 µM (LATS1; Lys1, […]): ≤ 0%
- % Inhibition (MAP2K1, MAP2K2; Lys1, KLIHLEIKPAIR): NB (NB = No Binding (≤ 0))
- % Inhibition (MAP2K1, MAP2K2; Lys2, DVKPSNILVNSR): 1.2%
- inhibition at 5 µM (NuaK2): 2.2%
- inhibition at 5 µM (ZC1/HGK): 3.1%
- inhibition at 5 µM (RSK1 domain1): ≤ 0%
- inhibition at 5 µM (AXL): ≤ 0%
- inhibition at 5 µM (IRAK1): ≤ 0%
